Like-named read-outs stand apart in the source and are kept apart here.
Tests used:
[1] = tested on: breast cancer cell lines; assay: Survival of breast cancer cell lines, methylene blue staining assay (FIG. 24); format: cell-based, human; conditions: for activity in suppressing breast cancer cell survival, compared with lansoprazole: lansoprazole metabolites, MCF7, MDA-MB-231, MDA-MB-468 cells; for performance against breast cancer cell lines, compared with lansoprazole: non-FDA-approved PPIs, different breast cancer cell lines
Text: (§1) FIG. 24. […] Actin was used as a loading control. D. effect of non-approved PPIs on the survival of breast cancer cell lines.

[2] = tested on: breast cancer patients; assay: Retrospective survival analysis of electronic medical records of breast cancer patients; format: in vivo, human
Experimental: FIG. 16. Retrospective survival analysis of breast cancer patients with or without use of proton pump inhibitors (PPIs). De-identified electronic medical records of 6,752 breast cancer patients were retrieved from the database of Indiana Network for Patient Care (INPC) and subjected to Kaplan-Meier survival analysis in association with PPI usage in all patients (A) or in triple negative breast cancer patient subgroup (B). The p-value and hazard ratio (HR) were calculated from Cox proportional hazard models, which were adjusted for age, tumor stage, and time of first diagnosis.
Because PPIs are widely used for treatment of a variety of acid-related digestive disorders, many cancer patients may use PPIs without the knowledge that the combination of PPIs with their chemotherapy may have helped them. To this end, a retrospective association analysis was conducted using de-identified electronic medical records (EMR) of 6,752 breast cancer patients from Indiana Network for Patient Care (INPC). The average age at diagnosis is 58.9 years (range 19-102) and average age at death or last visit is 61.5 (range 21-104). Of this cohort, 534 patients took one or more PPIs after diagnosis as recorded in the EMR. There are 488 triple negative breast cancer (TNBC) patients, among them 35 used PPIs. Using the Cox proportional hazard regression model, the patient overall survival was analyzed against PPI usage. […] The protective effect of PPIs on patient survival was adjusted for age, tumor stage, and time of first diagnosis.
The patient database contains three domains of electronic medical records (EMR) of 6,752 de-identified breast cancer patients from Indiana Network for Patient Care (INPC). The first domain contains patient characteristics as shown in Supplemental Table 51. The second domain contains medical test results including body weight, blood tests, and office visit information. The third domain contains prescription information for each patient. The use of this database has been approved by IRB at Indiana University for this study.
The first task is to remove null and duplicated values and to resolve contradicting records. For patients that have contradicting records, different rules for different conflicts were followed. For conflicts on the first visit or diagnosis time, the earlier record at younger age were used as the first diagnosis and considered the later one as system update. For all other information including diagnosis information such as cancer subtype, the latest record was used as it is thought to be more accurate.
Next, the plain text information from the first domain of the database including but not limited to ER, PR, and HER2 test results, treatment plans, and therapy types were digitized. The record that is not clear was marked as unknown. For example, the HER2 status with a 2+ score, a borderline score, from IHC staining was usually confirmed with FISH test. Patients with a 2+ score but without a FISH test result were considered unknown in this study.
Further, the days of patient survival from data in the first domain were validated using prescription history of the same patient in the third domain of the database. When there is a conflict, the last day of office visit or prescription refill, whichever is later, was recorded as the last day of visit or death. Moreover, patients who took PPIs prior to their diagnosis of breast cancer but stopped taking them after diagnosis were considered non-PPI users in this study.

[3] = tested on: MCF7 cells; assay: Colony formation survival assay, MCF7 cells; format: cell-based, human; conditions: Homo sapiens
Experimental: FIG. 15. […] B. Combination index. Combination index (CI) was derived using the data shown in A and the formula: […]
For each potency ratio, combination index of three effective concentrations at IC30, IC50, and IC70 were calculated for synergistic effects using Prism 7.0.
Cells were then harvested and re-plated in 6-well plates at a density of 200 cells/well followed by IR treatment at different doses and colony formation assay or collection of cells for Western blot analysis. Concentration-response curves and IC50 values were calculated using Prism 7.0 (GraphPad, La Jolla, USA).

[4] = tested on: M/FASN cells; assay: MTT survival assay, M/FASN cells; format: cell-based, human
Experimental: FIG. 5. PARP-1 mediates FASN-associated DNA repair and genotoxic treatment resistance. A-B, Effect of FASN on PARP-1 expression as determined by Western blot (A) and real-time RT-PCR (B) in stable FASN-over-expressing and -knockdown cells. C, Effect of FASN on IR-induced histone-H3 PARylation. Cells were pre-treated without or with 0.5 μM olaparib followed by treatment with or without IR and harvested at different times following IR for lysate preparation, immunoprecipitation of histone-H3 in the presence of 100 μM PARG inhibitor, gallotannin, and Western blot analyses of PARylated and total histone H3. D, Effect of PARP-1 knockdown on FASN-induced NHEJ up-regulation. FASN-over-expressing (P/FASN) and the control (P/Vec) cells were transiently transected with PARP-1 or scrambled control siRNA followed by Western blot analysis of PARP-1 (left panel) and NHEJ activity assay (right panel) (n=3, *p<0.05; **p<0.01). E, Effect of PARP-1 inhibition on survival. M/FASN cells were treated with 1 mM 3-ABA, 0.5 μM olaparib, or their vehicle control for 48 hours followed by MTT assay. F, Effect of PARP-1 inhibition on doxorubicin resistance. M/FASN cells were pre-treated for 6 hours by 1 mM 3-ABA, 0.5 μM olaparib, or transfected with control or PARP-1 siRNA followed by tested doxorubicin resistance using MTT survival assay. (n=3-4, *p<0.05, **p<0.01).
To determine if FASN enhancement of PARP-1 likely mediates FASN function in cellular resistance to DNA damages, a survival assay of […] cells following doxorubicin treatment in the absence or presence of PARP-1 inhibitors, 3-ABA (3-aminobenzamide) or olaparib was carried out. Now referring to FIG. 5E, either 1 mM 3-ABA or 0.5 μM olaparib alone had no effect on M/FASN cell survival.
MTT survival assay was performed as previously described (see e.g., Yang Y, Chen Q, & Zhang J T (2002) Structural and functional consequences of mutating cysteine residues in the amino terminus of human multidrug resistance-associated protein 1. J. Biol. Chem. 277(46):44268-44277). Briefly, cells in 96-well plate were cultured for 24 hours and treated with various concentrations of doxorubicin, bleomycin, cisplatin or H2O2 continuously for 3 days followed by addition of thiazolyl blue tetrazolium bromide (MTT) to a final concentration of 0.5 mg/mL and incubation at 37° C. for 4 hours. Medium was then removed and formazan was solubilized in dimethyl sulfoxide and the OD570 was measured by a Synergy H1 hybrid reader (BioTek, Winooski, Vt.). IC50's were obtained from the fitted curves generated by GraphPad Prism 5.0 program (GraphPad Software, Inc.). Relative resistance factor (RRF) is calculated using the formula RRF=IC50 (test)/IC50 (control) with control normalized as 1. […]

[5] = tested on: PARP1 and γ-H2AX; assay: Western blot of PARP1 and γ-H2AX (FIG. 24C); format: cell-based; conditions: dose-dependent
Experimental: as §1
Cells were harvest and then lysed in TNN buffer with 1 mM DTT, 1 mM PMSF and 0.1% SDS for 30 min at 4° C. with occasional agitation. The cells were sonicated briefly and total proteins were harvested after centrifugation of the lysate at 16,000 g for 15 minutes at to remove cell debris. The protein concentration of cell lysates was determined using a Bio-Rad protein assay kit. Total cell lysates were then separated by SDS-PAGE, transferred to a polyvinylidene fluoride membrane, and probed using antibodies against fatty acid synthase (610963, BD biosciences), PARP-1 (46D11, CST), γ-H2AX (05-636, Millipore), and (3-Actin (A2228, Sigma). The blot was then probed with horseradish peroxidase-conjugated secondary antibodies (Sigma) and signals were captured on X-ray films following developing with Amersham ECL Western Blotting Detection Reagent (RPN2106, GE).

[6] = pairwise versus Lansoprazole users, all patients
[7] = pairwise versus Omeprazole users, all patients
[8] = single-PPI users versus No PPI, all breast cancer patients
[9] = versus Lansoprazole, AA patients
[10] = versus Lansoprazole, CA patients
[11] = versus No PPI, African American (AA) patients
[12] = versus No PPI, Caucasian (CA) patients
[13] = pairwise versus Pantoprazole users, all patients
[14] = versus Pantoprazole, CA patients

Cc1c(OCC(F)(F)F)ccnc1CS(=O)(=O)c1nc2ccccc2[nH]1 [lansoprazole sulfone]
activity in suppressing breast cancer cell survival, compared with lansoprazole [1]: lost their activity

COc1ccc2[nH]c([S+]([O-])Cc3ncc(C)c(OC)c3C)nc2n1 (stereo not shown) [tenatoprazole]
performance against breast cancer cell lines, compared with lansoprazole [1]: performed better than lansoprazole only against some cell lines

Cc1c(OCC(F)(F)F)ccnc1C[S+]([O-])c1nc2ccc(O)cc2[nH]1 (stereo not shown) [5-hydroxy lansoprazole]
activity in suppressing breast cancer cell survival, compared with lansoprazole [1]: lost their activity

COc1ccnc(C[S+]([O-])c2nc3ccc(OC(F)F)cc3[nH]2)c1OC (stereo not shown) [pantoprazole]
HR (CoxPH ratio), overall survival [2, 6]: 1.43 | HR (CoxPH ratio), overall survival [2, 7]: 1.11 | HR (CoxPH ratio), overall survival [2, 8]: 0.32 | HR, overall survival [2, 9]: 9.89*10^8 | HR, overall survival [2, 10]: 0.59 | HR, overall survival [2, 11]: 0.59 | HR, overall survival [2, 12]: 0.18 | HR, overall survival ([2]; versus Omeprazole, AA patients): 1.85 | HR, overall survival ([2]; versus Omeprazole, CA patients): 0.66

COc1ccc2[nH]c([S+]([O-])Cc3ncc(C)c(OC)c3C)nc2c1 (stereo not shown) [omeprazole]
HR (CoxPH ratio), overall survival [2, 8]: 0.28 | HR, overall survival [2, 11]: 0.33 | HR, overall survival [2, 12]: 0.27 | IC50 ([3]; MCF7, read-out: IC50, cell survival, single agent, MCF7 cells, colony formation): 3100 nM | IC50 ([3]; MCF7, read-out: IC50 of omeprazole in the presence of olaparib, in the presence of 0.1 μM olaparib, MCF-7 cells): 1000 nM | IC50 ([3]; MCF7, read-out: IC50 of omeprazole in the presence of olaparib, in the presence of 0.3 μM olaparib, MCF-7 cells): 400 nM

NC(=O)c1cccc(N)c1 [3-ABA, 3-aminobenzamide]
effect on M/FASN cell survival ([4]; 1 mM 3-ABA or 0.5 μM olaparib alone, 48 hours): no effect | doxorubicin resistance level of M/FASN cells ([4]; pre-treated for 6 hours by 1 mM 3-ABA or 0.5 μM olaparib): significantly reduced

Cc1c(OCC(F)(F)F)ccnc1CSc1nc2cc(O)ccc2[nH]1 [5-hydroxy lansoprazole sulfide]
suppression of triple negative breast cancer cell survival, compared with lansoprazole ([1]; triple negative breast cancer cell lines): significantly more effective than lansoprazole | PARP1 expression [5]: inhibited PARP1 expression | production of γ-H2AX [5]: induced production of γ-H2AX in a dose-dependent manner

anaprazole
performance against breast cancer cell lines, compared with lansoprazole [1]: performed better than lansoprazole only against some cell lines

COc1ccc2nc([S@@+]([O-])Cc3ncc(C)c(OC)c3C)[nH]c2c1 [Esomeprazole, esomeprazole]
HR (CoxPH ratio), overall survival [2, 6]: 2.57 | HR (CoxPH ratio), overall survival [2, 7]: 1.6 | HR (CoxPH ratio), overall survival [2, 13]: 1.44 | HR (CoxPH ratio), overall survival ([2]; pairwise versus Rabeprazole users, all patients): 0.92 | HR (CoxPH ratio), overall survival [2, 8]: 0.44 | HR, overall survival [2, 9]: 7.79*10^7 | HR, overall survival [2, 10]: 1.74 | HR, overall survival [2, 11]: 0.49 | HR, overall survival [2, 12]: 0.35 | HR, overall survival ([2]; versus Omeprazole, AA patients): 1.47 | HR, overall survival ([2]; versus Pantoprazole, AA patients): 0.84 | HR, overall survival [2, 14]: 2.08 | HR, overall survival ([2]; versus Rabeprazole, CA patients): 0.66

COCCCOc1ccnc(C[S+]([O-])c2nc3ccccc3[nH]2)c1C (stereo not shown) [rabeprazole]
HR (CoxPH ratio), overall survival [2, 6]: 2.13 | HR (CoxPH ratio), overall survival [2, 7]: 1.50 | HR (CoxPH ratio), overall survival [2, 13]: 1.43 | HR (CoxPH ratio), overall survival [2, 8]: 0.47 | HR, overall survival [2, 10]: 1.99 | HR, overall survival [2, 12]: 0.5031 | HR, overall survival ([2]; versus Omeprazole, CA patients): 1.77 | HR, overall survival [2, 14]: 2.57

Cc1c(OCC(F)(F)F)ccnc1CSc1nc2ccccc2[nH]1 [lansoprazole sulfide]
activity in suppressing breast cancer cell survival, compared with lansoprazole [1]: lost their activity
